# Assay results from patent publication US4910213A, “Antimycotic agents” (Bayer Aktiengesellschaft, priority 1984, dated 1990).
# Columns and labels:
# Trichophyton mentagr. = experiment: In vitro antimycotic activity, serial dilution test (MIC); assay type: cell-based, Trichophyton mentagrophytes; settings: 28° to 37° C., 96 hours
# Procedure: (§1) The in vitro tests were carried out in a serial dilution test using inocula of organisms with an average of 5×10^3 to 10^4 organisms/ml of substrate. The following nutrient medium were used
# (§2) (a) for dermatophytes and mold fungi: Sabourand's milieu d'epreuve
# (§3) The incubation temperature was 28° to 37° C., and the incubation time was 24 to 96 hours for yeasts and 96 hours for dermatophytes and mold fungi.
# Aspergillus fumigatus = experiment: as above; assay type: cell-based; settings: 28° to 37° C., 96 hours
# Procedure: as §1, §2, §3
# Torulopsis glabrata = experiment: as above; assay type: cell-based; settings: Nakaseomyces glabratus, 28° to 37° C., 24 to 96 hours
# Procedure: (§4) The in vitro tests were carried out in a serial dilution test using inocula of organisms with an average of 5×10^3 to 10^4 organisms/ml of substrate. The following nutrient medium were used (b) for yeasts: meat extract/glucose broth. The incubation temperature was 28° to 37° C., and the incubation time was 24 to 96 hours for yeasts and 96 hours for dermatophytes and mold fungi.
# candida cells = experiment: In vivo antimycotic activity (oral) on candidosis of the mouse; set-up: species or system mouse (SPF-CF1) infected with candida; settings: 10-100 mg/kg; for Action (class of survival on day 6 after infection): 1 hour before and 7 hours after infection; for surviving on day 6 after infection: good or very good actions, untreated controls about 5%
# Procedure: Type SPF-CF1 mice were infected intravenously with 1-2×10^6 logarithmically growing candida cells which are suspended in physiological saline solution. The animals are each treated orally with 10-100 mg/kg of body weight of the products 1 hour before and 7 hours after the infection. Untreated animals died on days 3 to 6 after the infection. The survival rate on day 6 after the infection was about 5% for untreated control animals.
# [1] = test system: dermatophytes, mold fungi and yeasts; experiment: In vitro antimycotic activity, overall comparison with known compounds; assay type: cell-based; settings: in vitro serial dilution test
# Procedure: as §4, with “used (a) for dermatophytes and mold fungi: Sabourand's milieu d'epreuve” for “used”
# Microsporum canis = experiment: In vitro antimycotic activity, serial dilution test (MIC); assay type: cell-based; settings: 28° to 37° C., 96 hours
# Procedure: as §1, §2, §3
# Candida albicans = experiment: as above; assay type: cell-based; settings: 28° to 37° C., 24 to 96 hours
# Procedure: as §4
SMILES,MIC (Trichophyton mentagr.) [µg/mL],MIC (Aspergillus fumigatus) [µg/mL],MIC (Torulopsis glabrata) [µg/mL],MIC (Microsporum canis) [µg/mL],MIC (Candida albicans) [µg/mL],Action (class of survival on day 6 after infection) (candida cells),surviving on day 6 after infection (candida cells) [%],"antimycotic action compared with compounds (A), (B) and (C) [1]"
OC(Cn1cncn1)(c1ccc(F)cc1)C1(n2cncn2)CC1 (stereo not shown) [Example I-2],,,,,,+++++ (very good action = 90% surviving on day 6 after infection),> 60,
OC(Cn1cncn1)(c1ccc(Cl)cc1)C1(n2ccnc2)CC1 (stereo not shown) [Example I-10],,,,,,+++ (action = 60% surviving on day 6 after infection),> 60,
"OC(Cn1cncn1)(Cn1cncn1)c1ccccc1 [(C), reference compound]",64,> 64,> 64,,64,,,
Cc1ccc(C(O)(Cn2cncn2)C2(n3cncn3)CC2)cc1 (stereo not shown) [Example I-5],,,,,,++++ (good action = 80% surviving on day 6 after infection),> 60,

# Second part, led by results:
MIC (Trichophyton mentagr.) [µg/mL],MIC (Aspergillus fumigatus) [µg/mL],MIC (Torulopsis glabrata) [µg/mL],MIC (Microsporum canis) [µg/mL],MIC (Candida albicans) [µg/mL],SMILES,Action (class of survival on day 6 after infection) (candida cells),surviving on day 6 after infection (candida cells) [%],"antimycotic action compared with compounds (A), (B) and (C) [1]"
32,> 64,> 64,,,"OC(Cn1cncn1)(Cn1cncn1)c1cccc(Cl)c1 [(A), reference compound]",,,
< 1,8,8,4,2,OC(Cn1cncn1)(c1ccc(-c2ccccc2)cc1)C1(n2cncn2)CC1 (stereo not shown) [Example I-3],+++ (action = 60% surviving on day 6 after infection),> 60,"better antimycotic action than compounds (A), (B) and (C)"
< 1,64,32,32,4,OC(Cn1cncn1)(c1ccc(Br)cc1)C1(n2cncn2)CC1 (stereo not shown) [Example I-7],++++ (good action = 80% surviving on day 6 after infection),> 60,"better antimycotic action than compounds (A), (B) and (C)"
2,32,> 64,32,8,"OC(Cn1cncn1)(c1ccc(Cl)cc1)C1(n2cncn2)CC1 (stereo not shown) [Example I-1, 1-(4-chlorophenyl)-1-[1-(1,2,4-triazol-1-yl)cyclopropyl]-2-(1,2,4-triazol-1-yl)-1-ethanol]",+++++ (very good action = 90% surviving on day 6 after infection),> 60,"better antimycotic action than compounds (A), (B) and (C)"
4,32,> 64,32,8,OC(Cn1cncn1)(c1ccccc1)C1(n2cncn2)CC1 (stereo not shown) [Example I-6],+++++ (very good action = 90% surviving on day 6 after infection),> 60,"better antimycotic action than compounds (A), (B) and (C)"
16,> 64,64,,2,"OC(Cn1cncn1)(Cn1cncn1)c1ccc(Cl)cc1 [(B), reference compound]",,,
